Results: PubChem BioAssay (NCI)
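Assay format: 96-well plates, 48-hour exposure. At the GI50, growth is halved. TGI: total growth inhibition.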

Tests used:
Experiment in all cases: NCI anticancer screen, dose series, 48 h
786-0 renal = tested on: 786-0 renal
A498 renal = tested on: A498 renal
A549 NSCLC = tested on: A549 NSCLC
ACHN renal = tested on: ACHN renal
BT-549 breast = tested on: BT-549 breast
CAKI-1 renal = tested on: CAKI-1 renal
CCRF-CEM leukemia = tested on: CCRF-CEM leukemia
COLO 205 colon = tested on: COLO 205 colon
DU-145 prostate = tested on: DU-145 prostate
EKVX NSCLC = tested on: EKVX NSCLC
HCC-2998 colon = tested on: HCC-2998 colon
HCT-116 colon = tested on: HCT-116 colon
HCT-15 colon = tested on: HCT-15 colon
HL-60(TB) leukemia = tested on: HL-60(TB) leukemia
HOP-62 NSCLC = tested on: HOP-62 NSCLC
HOP-92 NSCLC = tested on: HOP-92 NSCLC
HS 578T breast = tested on: HS 578T breast
HT29 colon = tested on: HT29 colon
IGROV1 ovarian = tested on: IGROV1 ovarian
K-562 leukemia = tested on: K-562 leukemia
KM12 colon = tested on: KM12 colon
LOX IMVI melanoma = tested on: LOX IMVI melanoma
M14 melanoma = tested on: M14 melanoma
MALME-3M melanoma = tested on: MALME-3M melanoma
MCF7 breast = tested on: MCF7 breast
MDA-MB-231 breast = tested on: MDA-MB-231 breast
MDA-MB-435 = tested on: MDA-MB-435
MOLT-4 leukemia = tested on: MOLT-4 leukemia
NCI-H226 lung = tested on: NCI-H226 lung
NCI-H23 lung = tested on: NCI-H23 lung
NCI-H460 lung = tested on: NCI-H460 lung
NCI-H522 lung = tested on: NCI-H522 lung
NCI/ADR-RES ovarian = tested on: NCI/ADR-RES ovarian
OVCAR-3 ovarian = tested on: OVCAR-3 ovarian
OVCAR-4 ovarian = tested on: OVCAR-4 ovarian
OVCAR-5 ovarian = tested on: OVCAR-5 ovarian
OVCAR-8 ovarian = tested on: OVCAR-8 ovarian
PC-3 prostate = tested on: PC-3 prostate
RPMI-8226 leukemia = tested on: RPMI-8226 leukemia
RXF 393 renal = tested on: RXF 393 renal
SF-268 CNS = tested on: SF-268 CNS
SF-295 CNS = tested on: SF-295 CNS
SF-539 CNS = tested on: SF-539 CNS
SK-MEL-2 melanoma = tested on: SK-MEL-2 melanoma
SK-MEL-28 melanoma = tested on: SK-MEL-28 melanoma
SK-MEL-5 melanoma = tested on: SK-MEL-5 melanoma
SK-OV-3 ovarian = tested on: SK-OV-3 ovarian
SN12C renal = tested on: SN12C renal
SNB-19 CNS = tested on: SNB-19 CNS
SNB-75 CNS = tested on: SNB-75 CNS
SR leukemia = tested on: SR leukemia
SW-620 colon = tested on: SW-620 colon
T-47D breast = tested on: T-47D breast
TK-10 renal = tested on: TK-10 renal
U251 CNS = tested on: U251 CNS
UACC-257 melanoma = tested on: UACC-257 melanoma
UACC-62 melanoma = tested on: UACC-62 melanoma
UO-31 renal = tested on: UO-31 renal
MDA-N = tested on: MDA-N

## c1ccc2nc3c(cc2c1)Sc1cc2ccccc2[n+]2c1N3CC2
786-0 renal
  GI50: 43 µM
  TGI: > 100 µM
A498 renal
  GI50: 34.1 µM
  TGI: > 100 µM
A549 NSCLC
  GI50: 11.9 µM
  TGI: > 100 µM
ACHN renal
  GI50: > 100 µM
  TGI: > 100 µM
BT-549 breast
  GI50: 19.1 µM
  TGI: > 100 µM
CAKI-1 renal
  GI50: 64.5 µM
  TGI: > 100 µM
CCRF-CEM leukemia
  GI50: 26.8 µM
  TGI: > 100 µM
COLO 205 colon
  GI50: 3.57 µM
  TGI: 25.5 µM
DU-145 prostate
  GI50: 53.9 µM
  TGI: > 100 µM
EKVX NSCLC
  GI50: 21 µM
  TGI: > 100 µM
HCC-2998 colon
  GI50: 18.5 µM
  TGI: 64.3 µM
HCT-116 colon
  GI50: 30.8 µM
  TGI: > 100 µM
HCT-15 colon
  GI50: > 100 µM
  TGI: > 100 µM
HL-60(TB) leukemia
  GI50: 32.5 µM
  TGI: > 100 µM
HOP-62 NSCLC
  GI50: 20.8 µM
  TGI: 78.1 µM
HOP-92 NSCLC
  GI50: 27.9 µM
  TGI: > 100 µM
HS 578T breast
  GI50: 18.3 µM
  TGI: 85.1 µM
HT29 colon
  GI50: 33.8 µM
  TGI: > 100 µM
IGROV1 ovarian
  GI50: 22.8 µM
  TGI: > 100 µM
K-562 leukemia
  GI50: 14 µM
  TGI: > 100 µM
KM12 colon
  GI50: 11 µM
  TGI: 40.3 µM
LOX IMVI melanoma
  GI50: 41.3 µM
  TGI: > 100 µM
M14 melanoma
  GI50: 16.2 µM
  TGI: 45 µM
MALME-3M melanoma
  GI50: 4.17 µM
  TGI: 23.3 µM
MCF7 breast
  GI50: 8.67 µM
  TGI: > 100 µM
MDA-MB-231 breast
  GI50: 31.6 µM
  TGI: > 100 µM
MDA-MB-435
  GI50: 21.1 µM
  TGI: 65.7 µM
MOLT-4 leukemia
  GI50: 22.1 µM
  TGI: > 100 µM
NCI-H226 lung
  GI50: 45 µM
  TGI: > 100 µM
NCI-H23 lung
  GI50: 21.9 µM
  TGI: > 100 µM
NCI-H460 lung
  GI50: 20.3 µM
  TGI: 63.9 µM
NCI-H522 lung
  GI50: 26.7 µM
  TGI: > 100 µM
NCI/ADR-RES ovarian
  GI50: > 100 µM
  TGI: > 100 µM
OVCAR-3 ovarian
  GI50: 21.2 µM
  TGI: > 100 µM
OVCAR-4 ovarian
  GI50: 24.7 µM
  TGI: > 100 µM
OVCAR-5 ovarian
  GI50: > 100 µM
  TGI: > 100 µM
OVCAR-8 ovarian
  GI50: 25.3 µM
  TGI: > 100 µM
PC-3 prostate
  GI50: 27.4 µM
  TGI: > 100 µM
RPMI-8226 leukemia
  GI50: 15.6 µM
  TGI: > 100 µM
RXF 393 renal
  GI50: 13.7 µM
  TGI: 54.9 µM
SF-268 CNS
  GI50: 23.6 µM
  TGI: > 100 µM
SF-295 CNS
  GI50: 65.7 µM
  TGI: > 100 µM
SF-539 CNS
  GI50: 35.9 µM
  TGI: > 100 µM
SK-MEL-2 melanoma
  GI50: 17.6 µM
  TGI: 43.9 µM
SK-MEL-28 melanoma
  GI50: 20.8 µM
  TGI: 83.9 µM
SK-MEL-5 melanoma
  GI50: 3.66 µM
  TGI: 20 µM
SK-OV-3 ovarian
  GI50: > 100 µM
  TGI: > 100 µM
SN12C renal
  GI50: 21.5 µM
  TGI: > 100 µM
SNB-19 CNS
  GI50: 19.7 µM
  TGI: 91.9 µM
SNB-75 CNS
  GI50: 26.9 µM
  TGI: > 100 µM
SR leukemia
  GI50: 13.5 µM
  TGI: > 100 µM
SW-620 colon
  GI50: 32.5 µM
  TGI: > 100 µM
T-47D breast
  GI50: 15 µM
  TGI: 64.9 µM
TK-10 renal
  GI50: 36.4 µM
  TGI: > 100 µM
U251 CNS
  GI50: 24 µM
  TGI: > 100 µM
UACC-257 melanoma
  GI50: 11.6 µM
  TGI: 34.8 µM
UACC-62 melanoma
  GI50: 13.5 µM
  TGI: 28.8 µM
UO-31 renal
  GI50: > 100 µM
  TGI: > 100 µM

## CN(C)CCOc1ccc2[nH]c(C(=O)N3CC(CCl)c4c3cc(NC(=O)OCc3ccc([N+](=O)[O-])cc3)c3ccccc43)cc2c1 (stereo unspecified)
786-0 renal
  TGI: 2.09 µM
A549 NSCLC
  TGI: 2.52 µM
COLO 205 colon
  TGI: 3.29 µM
DU-145 prostate
  TGI: 1.9 µM
EKVX NSCLC
  TGI: 3.14 µM
HCC-2998 colon
  TGI: > 100 µM
HCT-116 colon
  TGI: 2.17 µM
HCT-15 colon
  TGI: 3.58 µM
M14 melanoma
  TGI: 2.88 µM
MALME-3M melanoma
  TGI: 2.86 µM
MDA-MB-231 breast
  TGI: 3.23 µM
MDA-N
  TGI: 2.86 µM
NCI-H226 lung
  TGI: 3.72 µM
NCI-H460 lung
  TGI: > 100 µM
OVCAR-5 ovarian
  TGI: 2.95 µM
SF-539 CNS
  TGI: 2.99 µM
SK-MEL-28 melanoma
  TGI: 3.06 µM
SK-MEL-5 melanoma
  TGI: 2.76 µM
SN12C renal
  TGI: 2.95 µM
SW-620 colon
  TGI: 2.61 µM
TK-10 renal
  TGI: > 100 µM
U251 CNS
  TGI: > 100 µM
UACC-257 melanoma
  TGI: > 100 µM
UACC-62 melanoma
  TGI: 5.36 µM
UO-31 renal
  TGI: 2.56 µM
